This note sets out measurements from PubChem BioAssay (NCI).

Molecules are shown by their SMILES.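 In this assay, cells in 96-well plates receive the compound at five concentrations for 48 hours. Endpoints are linearly interpolated between the surrounding concentrations. The concentration for full growth arrest is given as TGI.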 *1 amine or outer side, *2 acyl side, *3 side chain or, on linkers, in order; H or OH if unused. Where a SMILES comes first, the peptide text is derived from it. [ ]: non-standard residue; d: D form. X33 = C=CCC(O[*:1])C(=O)[*:2]; NMeV = CN[CH](C(=O)O)C(C)C; NMeA = CN[CH](C)C(=O)O; βAla = NCCC(=O)O

Holding throughout (assay): inhibition of tumour cell growth, NCI panel, 48 h
In assay [1] the test system is M14 melanoma.
Assay [2] relates to UO-31 renal.
Assay [3] deals with MALME-3M melanoma.
Assay [4] has as its system UACC-257 melanoma.
In assay [5] the test system is SF-268 CNS.
For assay [6], the system named is A549 NSCLC.
In assay [7] the test system is SK-MEL-5 melanoma.
In assay [8] the test system is MDA-N.
Assay [9] concerns TK-10 renal.
In assay [10] the test system is COLO 205 colon.
Assay [11] has as its system RXF 393 renal.
In assay [12] the test system is DU-145 prostate.
In assay [13] the test system is NCI-H226 lung.
Assay [14] deals with OVCAR-5 ovarian.
Assay [15] has as its system OVCAR-3 ovarian.
In assay [16] the test system is HS 578T breast.
Assay [17] has as its system HL-60(TB) leukemia.
Assay [18] deals with NCI/ADR-RES ovarian.
The subject of assay [19] is OVCAR-4 ovarian.
Assay [20] concerns SNB-78 CNS.

For `O=C(O)CC1OCC=C2CN3CCC45C6=CC(=O)C(=O)C([N+](=O)[O-])=C6NC4C1C2CC35` (stereo not drawn), the TGI in assay [1], in assay [2], in assay [3], in assay [4], in [5] and in assay [6] was over 100 µM each time. For the same molecule, the TGI in assay [7], in [8], in assay [9], in assay [10], in assay [11] and in [12] was over 100 µM each time. Moreover, the TGI in [13], in [14], in assay [15], in [16], in assay [17] and in assay [18] was over 100 µM each time. In [19], this molecule had a TGI of over 100 µM.
Turning to `C=CCC1OC(=O)CCNC(=O)C(C)N(C)C(=O)C(C(C)C)N(C)C(=O)C(C(C)CC)NC(=O)C2CCCN2C1=O` (stereo not drawn) (cyclo([X33]PI[NMeV][NMeA][βAla]); configuration not given here), the TGI in [1] was over 100 µM; in assay [2], 47.5 µM; in assay [4], 71.6 µM; in [5], over 100 µM; in [6] it was over 100 µM; in assay [7] it was 6.12 µM. The TGI in [8], in [9], in assay [10], in [12], in assay [14] and in assay [15] was over 100 µM each time. For the same molecule, the TGI in assay [16] is over 100 µM; in assay [17], 8.47 µM; in assay [18], over 100 µM; in assay [19] it was over 100 µM.
Consider `CCOP(=O)(CN=C(c1ccccc1)c1ccccc1)OCC`, for which the TGI in assay [1], in assay [2], in assay [4], in assay [6], in [7] and in [8] was over 100 µM throughout. In addition, the TGI in assay [9], in assay [10], in assay [12], in assay [13], in assay [14] and in [15] was over 100 µM throughout. For the same molecule, the TGI in assay [16], in [17], in assay [18] and in assay [19] was over 100 µM in each case.
In the case of `CCCCCC[C@H]1C(=O)O[C@H](C)[C@H](NC(=O)c2cccc(NC=O)c2OC)C(=O)O[C@@H](C)[C@@H]1OC(=O)CC(C)C` (tested in a mixture with another compound), the TGI in [1] is over 100 µM; in [2], over 100 µM; in assay [3] it was over 100 µM; in assay [4] it was 55.7 µM; in assay [5], over 100 µM; in [6] it was 21.4 µM. The TGI in [7] is 38.7 µM; in assay [8] it was over 100 µM; in [9] it was 50.8 µM; in [10] it was 34.7 µM; in [11] it was over 100 µM; in assay [12], over 100 µM. The TGI in assay [13] was over 100 µM; in assay [14], over 100 µM; in assay [15], 22.5 µM; in [16] it was over 100 µM; in assay [17] it was over 100 µM; in assay [18], 84.9 µM. The molecule further showed a TGI in [19] of 24.9 µM.
As for `O=C1OCC/C1=C/c1ccc(N=Nc2c(O)ccc3ccccc23)cc1`, the TGI in assay [1] is 66.3 µM; in assay [2], 37.3 µM; in assay [3] it was 32.3 µM; in assay [4], 40.3 µM; in assay [5], 44.7 µM; in assay [6], 44.7 µM. Moreover, the TGI worked out at 50.8 µM in [7]; 33.5 µM in [8]; 35.3 µM in [9]; 58 µM in [10]; 36.8 µM in assay [11]; 36.6 µM in assay [12]. Also, the TGI worked out at 36 µM in assay [13]; 42.2 µM in [14]; 34.4 µM in assay [15]; 54.3 µM in assay [16]; 57.1 µM in assay [17]; 41.7 µM in [18]. Moreover, the TGI in assay [19] was determined as 37.4 µM.
On to `O=S(=O)(O)c1ccc2c(N=Nc3ccc(F)cc3)c(O)c(S(=O)(=O)O)cc2c1`, for which the TGI in assay [1], in assay [2], in assay [3], in assay [4], in [5] and in [6] was over 100 µM in each case. Besides, the TGI in [7], in [8], in assay [9], in assay [10], in assay [11] and in [12] was over 100 µM in each case. Further, the TGI in assay [14], in assay [15], in [16], in assay [18] and in assay [19] was over 100 µM each time.
Consider `Nc1nc(N)c2[nH]cnc2n1` (tested in a mixture with another compound), for which the TGI in assay [1] is 36.2 µM; in assay [2] it was 58.4 µM; in [3], over 100 µM; in assay [4], 55.2 µM; in assay [5] it was over 100 µM; in assay [6], 47.4 µM. Moreover, the TGI in assay [7] was 85.3 µM; in [8], over 100 µM; in assay [9], 80.7 µM; in assay [10], over 100 µM; in [11], 80.6 µM; in [12], over 100 µM. The TGI was over 100 µM in assay [13]; over 100 µM in assay [14]; 74.4 µM in assay [15]; over 100 µM in [16]; over 100 µM in [17]; over 100 µM in assay [18]. The molecule further came in with a TGI in assay [19] of over 100 µM.
For the molecule `COc1ccc(-c2c3c(nc4nc(SC)nc(SC)c24)CCCC3)cc1OC`, the TGI in assay [1], in [2], in [3], in assay [4], in [5] and in assay [6] was over 100 µM in each case. The TGI in [7], in [8], in assay [9], in [10], in [11] and in assay [12] was over 100 µM in each case. Also, the TGI in assay [13] was over 100 µM; in assay [14], over 100 µM; in assay [15], over 100 µM; in assay [16], 86.3 µM; in assay [17], 51.4 µM.
As for `CC(CCC(=O)O)C1CCC2C3C(O)CC4CC(O)CCC4(C)C3CC(O)C12C` (stereo not drawn), the TGI in [1], in assay [2], in assay [3], in assay [4], in [5] and in assay [6] was over 100 µM throughout. The TGI in [7], in assay [8], in [9], in assay [10], in assay [11] and in assay [12] was over 100 µM throughout. Further, the TGI in assay [13], in assay [14], in assay [15], in [16], in assay [17] and in [18] was over 100 µM in each case. In assay [19], this molecule returned a TGI of over 100 µM.
For the molecule `Cc1cc2nc(-c3c(F)cccc3F)n(Cc3c(F)cccc3F)c2cc1C`, the TGI was 25.2 µM in [1]; 23.3 µM in assay [2]; 44 µM in assay [3]; 30 µM in assay [4]; 42.7 µM in assay [5]; 28.1 µM in [6]. The TGI in [7] was determined as 26.5 µM; in assay [8], 38.4 µM; in assay [9], 56.6 µM; in assay [10] it was 30.7 µM; in assay [11], 61 µM; in assay [12], 50.5 µM. In addition, the TGI in assay [13] stood at 35.1 µM; in assay [14] it was 31.7 µM; in [15], 31.8 µM; in assay [16], 46.7 µM; in assay [17] it was 42.7 µM; in assay [18], 44.9 µM. The TGI in [19] is 40.1 µM.
For `Cc1ccc(Nc2nc(NS(=O)(=O)c3cc(C(=O)Nc4ccc(Cl)cc4)c(Cl)cc3S)n[nH]2)cc1`, the TGI in assay [1], in assay [2], in [3], in assay [4], in [5] and in [6] was over 100 µM throughout. Besides, the TGI in [7], in assay [8], in assay [9], in assay [10], in assay [11] and in assay [12] was over 100 µM each time. Also, the TGI in [14], in assay [15], in assay [16], in [17], in [18] and in [19] was over 100 µM in each case.
Regarding `Clc1nc(NCCc2ccccc2)c2ncn(-c3ccccc3)c2n1`, the TGI is 49.7 µM in assay [1]; 43.1 µM in assay [2]; 52.4 µM in [3]; 34.6 µM in [4]; over 100 µM in assay [5]; over 100 µM in assay [6]. The TGI in assay [7] was 32.5 µM; in assay [8] it was 40.2 µM; in assay [9] it was 71.2 µM; in assay [10], 50.6 µM; in [11], over 100 µM; in [12], 83.4 µM. The TGI in assay [13] was 58.9 µM; in assay [14], over 100 µM; in [15] it was 82.2 µM; in assay [16], 76.7 µM; in [18] it was 57.9 µM; in assay [19], 42.1 µM.
As for `O=C(O)CC1(CC(=O)O)Nc2ccccc2SC1=O`, the TGI in assay [1], in assay [2], in [3], in assay [4], in [5] and in assay [6] was over 100 µM each time. For the same molecule, the TGI in assay [7], in assay [8], in assay [9], in [10], in [11] and in assay [12] was over 100 µM each time. Also, the TGI in [13], in [14], in assay [15], in [16], in assay [18] and in assay [19] was over 100 µM in each case.
Regarding `CC(c1ccccc1)/[N+]([O-])=C/c1ccccc1` (stereo not drawn), the TGI in [2], in [4], in assay [5], in assay [20], in assay [6] and in [9] was over 100 µM throughout. Further, the TGI in [10], in [11], in assay [14], in assay [15] and in assay [17] was over 100 µM throughout.
Take `COc1cc2c(cc1OC)C(C)N(C)c1c-2c(OC(C)=O)cc2cc(OC)c(OC)cc12` (stereo not drawn): the TGI in assay [1] was 28.2 µM; in [2], over 92.1 µM; in assay [3] it was 14.8 µM; in assay [4], 24.2 µM; in assay [5], over 100 µM; in assay [6], over 69.2 µM. The TGI in assay [7] is 15.8 µM; in assay [8], 38.3 µM; in [9], over 100 µM; in assay [10], 20 µM; in [11] it was 31.1 µM; in assay [12] it was 40.8 µM. Further, the TGI in [13] is over 44.1 µM; in [14], over 100 µM; in [15] it was over 100 µM; in [16], over 57.1 µM; in assay [18], 33.2 µM; in [19], over 45.4 µM.
